Assay in all cases: DTP human tumour cell line panel, 48 h
The test system of assay [1] is COLO 205.
The test system of assay [2] is EKVX.
Assay [3] concerns HCT-15.
Assay [4] deals with HOP-92.
Assay [5] concerns Hs-578T.
In assay [6] the test system is KM12.
Assay [7] deals with LOX IMVI.
Assay [8] deals with MDA-MB-231.
Assay [9] deals with MDA-N.
Assay [10] deals with MOLT-4.
The test system of assay [11] is NCI-H226.
Assay [12] deals with NCI-H522.
The test system of assay [13] is OVCAR-4.
Assay [14] deals with PC-3.
The test system of assay [15] is SF-295.
Assay [16] concerns SK-MEL-2.
In assay [17] the test system is TK-10.
In assay [18] the test system is UACC-257.
In assay [19] the test system is UO-31.

The values below come from ChEMBL document CHEMBL1201862, “PubChem BioAssay data set” (2004).

For orientation: GI50 means the concentration that inhibits growth by half.

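96-well plates; 48 h exposure; 5 concentrations. Endpoints by linear interpolation between flanking doses. Not reached: highest tested concentration assigned. GI50 = concentration required for 50% inhibition of growth.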 Activity calls are given as the source filed them. Rule as the data show it: active = GI50 up to about 1.1 µM and inactive = higher. Bounds are passed on as bounds.

With `Cc1ccc(S(=O)(=O)Nn2c(-c3ccccc3)c(C#N)c(-c3ccc([N+](=O)[O-])cc3)c(C#N)c2=O)cc1`, the GI50 in assay [1] is > 100 µM (inactive); in assay [2], > 100 µM (inactive); in assay [3], above 100 µM; in assay [4], 30.1 µM (inactive); in assay [5], 88.7 µM (inactive); in assay [6], > 100 µM (inactive). Besides, the GI50 in assay [7] was > 100 µM (inactive); in assay [8], > 100 µM (inactive); in assay [9], > 100 µM (inactive); in [10], 45.6 µM (inactive); in assay [11] it was > 100 µM (inactive); in [12], 13.3 µM (inactive). Further, the GI50 in [13], in assay [14], in assay [15], in assay [16], in [17] and in assay [18] was > 100 µM (inactive) throughout.

In the case of `CC(=O)O[C@H](C[C@@H](C)[C@H]1C(=O)[C@H](O)[C@@]2(C)C3CC[C@H]4C(C)(C)[C@@H](OC5OCC(O)C(O)C5O)CC[C@@]45C[C@@]35CC[C@]12C)[C@@H]1OC1(C)C` (some centres not stated), the GI50 in assay [1] was 22 µM (inactive); in assay [2] it was 18 µM (inactive); in assay [3], 24.6 µM; in assay [4], 16.9 µM (inactive); in assay [5] it was 38 µM (inactive); in assay [6] it was 22.2 µM (inactive). The GI50 in assay [7] was 30.3 µM (inactive); in [8], 16.1 µM (inactive); in assay [9] it was 19.3 µM (inactive); in assay [11], 17.5 µM (inactive); in assay [12] it was 17.4 µM (inactive); in [13] it was 22.4 µM (inactive). Moreover, the GI50 in [14] was 15.2 µM (inactive); in [15] it was 16.3 µM (inactive); in assay [16] it was 16 µM (inactive); in [17], 16.3 µM (inactive); in assay [18] it was 18.6 µM (inactive); in [19] it was 22.9 µM (inactive).

As for `Nc1ccccc1.O=P(O)(O)c1ccccc1`, the GI50 in assay [1] was > 100 µM (inactive); in [2] it was > 100 µM (inactive); in assay [3] it was above 100 µM; in [4], > 100 µM (inactive); in assay [5], > 100 µM (inactive); in assay [6], > 100 µM (inactive). In addition, the GI50 in [7], in assay [8], in assay [9], in assay [11], in assay [12] and in assay [13] was > 100 µM (inactive) each time. Besides, the GI50 in [14], in assay [15], in [16], in assay [17], in [18] and in assay [19] was > 100 µM (inactive) in each case.

With `C/C=C1/CC(C)C(C)(O)C(=O)OCC2C(O)CN3CCC(OC1=O)C23` (configuration not stated), the GI50 in assay [1] was > 100 µM (inactive); in assay [2] it was > 100 µM (inactive); in [3], above 100 µM; in assay [4], > 100 µM (inactive); in assay [5] it was > 100 µM (inactive); in [6], > 100 µM (inactive). Moreover, the GI50 in assay [7] is > 100 µM (inactive); in assay [8] it was > 100 µM (inactive); in assay [9] it was > 100 µM (inactive); in assay [10], > 100 µM (inactive); in [11], > 100 µM (inactive); in assay [12], 68.9 µM (inactive). The GI50 in assay [13], in assay [14], in [15], in [16], in [17] and in assay [18] was > 100 µM (inactive) throughout.

As to `CSc1nc(NC(C)C)c2c(n1)Sc1nc3ccccc3n1C2O` (configuration not stated), the GI50 was 1.65 µM (inactive) in [1]; 11.5 µM (inactive) in [2]; 4.1 µM in [3]; 89.5 µM (inactive) in [4]; 2.79 µM (inactive) in assay [5]; 3.01 µM (inactive) in assay [6]. The GI50 in assay [7] is 7 µM (inactive); in assay [8], 9.14 µM (inactive); in assay [9] it was 2.75 µM (inactive); in assay [10] it was 2.84 µM (inactive); in assay [12], 2.28 µM (inactive); in assay [13] it was 4.98 µM (inactive). Also, the GI50 in assay [14] was 1.83 µM (inactive); in assay [15] it was 3.45 µM (inactive); in assay [16], 7.73 µM (inactive); in assay [17], 14.3 µM (inactive); in assay [18], 40.9 µM (inactive); in [19], 5.71 µM (inactive).

`CC(=O)NC1C(OCc2ccccc2)OC(CO)C(O)C1OCC(=O)N[C@@H](C)C(=O)N[C@H](CCC(=O)NCCNCCNc1c2ccccc2nc2cccc([N+](=O)[O-])c12)C(N)=O` (some centres not stated): the GI50 in assay [1] is 25 µM (inactive); in [2], 31.6 µM (inactive); in assay [3], 22.6 µM; in assay [4] it was 20.7 µM (inactive); in [5], 22.5 µM (inactive); in assay [6], 24.2 µM (inactive). The GI50 in assay [7] is 23.5 µM (inactive); in assay [8], 34.8 µM (inactive); in assay [9], 33.1 µM (inactive); in [12], 4.92 µM (inactive); in assay [13], 17.3 µM (inactive); in assay [14], 22.1 µM (inactive). Also, the GI50 in [15] is 57.4 µM (inactive); in [16] it was 22.3 µM (inactive); in assay [17], 31.8 µM (inactive); in assay [18], 21.2 µM (inactive); in assay [19], 44.8 µM (inactive).

Turning to `Cc1ccc(S(=O)(=O)NC(=O)N[C@@H](Cc2c[nH]cn2)C(=O)O)cc1`, the GI50 in [1] was > 100 µM (inactive); in assay [3], above 100 µM; in assay [4], > 100 µM (inactive); in [5], > 100 µM (inactive); in assay [6], > 100 µM (inactive); in assay [7], > 100 µM (inactive). The GI50 in [8], in assay [9], in assay [10], in [12], in assay [13] and in assay [14] was > 100 µM (inactive) in each case. Further, the GI50 in assay [15], in assay [16], in assay [17], in [18] and in [19] was > 100 µM (inactive) in each case.

Regarding `Nc1nc(NCC2(CO)CCC2)cc(=O)[nH]1`, the GI50 in assay [1] is > 100 µM (inactive); in [2], > 100 µM (inactive); in assay [3], above 100 µM; in [4], > 100 µM (inactive); in [5], > 100 µM (inactive); in assay [6] it was > 100 µM (inactive). The GI50 in assay [7], in assay [8], in assay [9], in assay [10], in assay [11] and in assay [12] was > 100 µM (inactive) in each case. For the same molecule, the GI50 in assay [13], in assay [14], in [15], in [16], in assay [18] and in [19] was > 100 µM (inactive) in each case.
